# Results reported in patent US9834514B2, “Antibiotic sensitivity-restoring and photosensitive agents” (New Mexico Tech Research Foundation, priority 2015, dated 2017).
# What was measured:
# Type in all cases: cell-based
# P. aeruginosa = experiment: Cell killing with compounds and PME at fixed concentrations, with and without white light; details: 20 μM compound and 0.1 μg/mL PME
# Method: FIG. 26 is an example of the treatment of P. aeruginosa with compound 1 and PME at fixed concentrations.
# P. aeruginosa cells were also treated with white light upon being incubated with compound 1 for different durations of time. In a 12×75 mm borosilicate glass culture tube, 1 mL of cell suspension was added. PME was added to the cells, and the samples were mixed using a vortex mixer. The resulting samples were incubated for 1.5 hours at 37° C. on a rotary shaking incubator at 100 rpm. Compound 1 was then added, and the samples were incubated for 30 minutes at 37° C. on a rotary shaking incubator at 100 rpm. The samples were then irradiated with white light using a Lumacare™ LC-122 for 2 minutes (irradiation λ1) and incubated overnight at 37° C. The samples were irradiated again with white light using a Lumacare™ LC-122 for 2 minutes (irradiation λ2). Ten-fold dilutions were made of each sample, and 10 μL of each dilution was drip-streaked onto an agar plate. The samples were incubated overnight at 37° C., and colony counts were performed to calculate CFU/mL.
# FIG. 55 is an illustrative example of the treatment of P. aeruginosa with compound 1, PME, co-treatment with compound 1 and PME, and co-treatment with compound 1, PME, and light (λ1 and λ2) at fixed concentrations.
# [1] = test system: A. baumannii (ATCC 15151); experiment: MIC against A. baumannii; details: Acinetobacter baumannii, ATCC15151
# Method: TABLE 28 details the individual MIC values of compounds 1, 7, 8, 9, 10, 11, PMB, PME, and light against A. baumannii.
# (§1) The MICs of PME and compounds 8-11 were determined against A. baumannii (ATCC 15151). […] After incubating the cells with PME, a compound (5 μM) was added, and the samples were further incubated at 37° C. At specific time points, samples were taken and diluted ten-fold in media. Ten microliters of each dilution was then drip-streaked onto an agar plate and incubated overnight at 37° C. Colony counts were then performed, and the CFU/mL were calculated.
# [2] = test system: A. baumannii (ATCC 15151); experiment: Time course of colony counts with compounds and PME or PMB; details: 0.2 μg/mL of PME, compound 5 μM; FIGS. 50, 52
# Method: as §1
# [3] = test system: MRSA isolates (S. aureus ATCC 33591, BAA-44, BAA-1707, BAA-1717, BAA-1720, BAA-1747, BAA-1754, BAA-1761, BAA-1763, BAA-1764, BAA-1766); experiment: Combination effects of compounds 7-11 and antibiotics on MRSA isolates (turbidity)
# Description: Inhibition resulting from co-treatment of a broth suspension with a compound of the invention and an antibiotic was compared to broth suspensions subjected to each individual treatment. A visual observation of inhibition with the unaided eye upon co-treatment of the broth suspensions, based on turbidity, was considered synergistic.
# Exceptions to reading complete inhibition of growth included Gram-positive cocci. For Gram-positive cocci, trailing growth was observed. For these species, the MICs were read at the first spot where trailing was observed, and tiny buttons of growth were ignored. […]
# Two-fold dilutions of the antibiotics were prepared in a liquid growth medium dispensed in test tubes. […] The antibiotic-containing tubes were inoculated with a standard bacterial suspension of 5×10^5 CFU/mL. Following an overnight incubation (16-20 hrs) at 35±2° C. under ambient air, the tubes were examined for visible bacterial growth based on turbidity. The lowest concentration of antibiotic that prevented growth was determined to be the MIC. An incubation time of 24 hrs was used to determine the MICs of oxacillin and vancomycin.
# drug-resistant bacteria = experiment: Summary of synergistic activities with antibiotic families (TABLE 45)
# Description: TABLE 45 summarizes the synergistic activities of the seven classes of clinically used antibiotics and compounds of the invention against a variety of different drug-resistant bacteria.
structure (smiles),measurement,setting,value
Clc1ccc(Oc2c(-c3ccc(Cl)cc3)[nH]c3ccc(Cl)cc23)cc1 [Compound 11],Co-treatment with PME: log reduction in the CFU/mL compared to PME alone,P. aeruginosa,2-log reduction
same,Co-treatment with PME: log reduction in the CFU/mL compared to PME alone,P. aeruginosa; listed as compound 11,about 2 log reduction
same,MIC,[1],> 100 µM
same,A. baumannii colony populations on treatment with compound and PME,[2],reduced to sterility
same,combination effect with Gentamycin,[3]; MRSA ATCC 33591,No Synergy
same,combination effect with Norfloxacin,[3]; MRSA ATCC 33591,No Synergy
same,combination effect with Oxacillin,[3]; MRSA ATCC 33591,No Synergy
same,combination effect with Tetracycline,[3]; MRSA ATCC 33591,No Synergy
same,combination effect with Vancomycin,[3]; MRSA ATCC 33591,Susceptible
same,combination effect with Norfloxacin,[3]; MRSA ATCC BAA-44,No Synergy
same,combination effect with Oxacillin,[3]; MRSA ATCC BAA-44,Synergy
same,combination effect with Tetracycline,[3]; MRSA ATCC BAA-44,Susceptible
same,combination effect with Vancomycin,[3]; MRSA ATCC BAA-44,Susceptible
same,combination effect with Gentamycin,[3]; MRSA ATCC BAA-1707,Susceptible
same,combination effect with Norfloxacin,[3]; MRSA ATCC BAA-1707,Susceptible
same,combination effect with Oxacillin,[3]; MRSA ATCC BAA-1707,Susceptible
same,combination effect with Tetracycline,[3]; MRSA ATCC BAA-1707,Synergy
same,combination effect with Vancomycin,[3]; MRSA ATCC BAA-1707,Susceptible
same,combination effect with Gentamycin,[3]; MRSA ATCC BAA-1717,Susceptible
same,combination effect with Norfloxacin,[3]; MRSA ATCC BAA-1717,Susceptible
same,combination effect with Oxacillin,[3]; MRSA ATCC BAA-1717,Synergy
same,combination effect with Tetracycline,[3]; MRSA ATCC BAA-1717,Susceptible
same,combination effect with Vancomycin,[3]; MRSA ATCC BAA-1717,Susceptible
same,combination effect with Gentamycin,[3]; MRSA ATCC BAA-1720,Susceptible
same,combination effect with Norfloxacin,[3]; MRSA ATCC BAA-1720,No Synergy
same,combination effect with Oxacillin,[3]; MRSA ATCC BAA-1720,No Synergy
same,combination effect with Tetracycline,[3]; MRSA ATCC BAA-1720,Susceptible
same,combination effect with Vancomycin,[3]; MRSA ATCC BAA-1720,Susceptible
same,combination effect with Gentamycin,[3]; MRSA ATCC BAA-1747,Susceptible
same,combination effect with Norfloxacin,[3]; MRSA ATCC BAA-1747,Susceptible
same,combination effect with Oxacillin,[3]; MRSA ATCC BAA-1747,Susceptible
same,combination effect with Tetracycline,[3]; MRSA ATCC BAA-1747,Susceptible
same,combination effect with Vancomycin,[3]; MRSA ATCC BAA-1747,Susceptible
same,combination effect with Gentamycin,[3]; MRSA ATCC BAA-1754,Susceptible
same,combination effect with Norfloxacin,[3]; MRSA ATCC BAA-1754,Susceptible
same,combination effect with Oxacillin,[3]; MRSA ATCC BAA-1754,No Synergy
same,combination effect with Tetracycline,[3]; MRSA ATCC BAA-1754,Susceptible
same,combination effect with Vancomycin,[3]; MRSA ATCC BAA-1754,Susceptible
same,combination effect with Gentamycin,[3]; MRSA ATCC BAA-1761,Susceptible
same,combination effect with Norfloxacin,[3]; MRSA ATCC BAA-1761,No Synergy
same,combination effect with Oxacillin,[3]; MRSA ATCC BAA-1761,Susceptible
same,combination effect with Tetracycline,[3]; MRSA ATCC BAA-1761,Susceptible
same,combination effect with Vancomycin,[3]; MRSA ATCC BAA-1761,Susceptible
same,combination effect with Gentamycin,[3]; MRSA ATCC BAA-1763,Susceptible
same,combination effect with Norfloxacin,[3]; MRSA ATCC BAA-1763,No Synergy
same,combination effect with Oxacillin,[3]; MRSA ATCC BAA-1763,No Synergy
same,combination effect with Tetracycline,[3]; MRSA ATCC BAA-1763,Susceptible
same,combination effect with Vancomycin,[3]; MRSA ATCC BAA-1763,Susceptible
same,combination effect with Gentamycin,[3]; MRSA ATCC BAA-1764,Susceptible
same,combination effect with Norfloxacin,[3]; MRSA ATCC BAA-1764,Susceptible
same,combination effect with Oxacillin,[3]; MRSA ATCC BAA-1764,No Synergy
same,combination effect with Tetracycline,[3]; MRSA ATCC BAA-1764,Susceptible
same,combination effect with Vancomycin,[3]; MRSA ATCC BAA-1764,Susceptible
same,combination effect with Gentamycin,[3]; MRSA ATCC BAA-1766,Susceptible
same,combination effect with Norfloxacin,[3]; MRSA ATCC BAA-1766,Susceptible
same,combination effect with Oxacillin,[3]; MRSA ATCC BAA-1766,No Synergy
same,combination effect with Tetracycline,[3]; MRSA ATCC BAA-1766,Susceptible
same,combination effect with Vancomycin,[3]; MRSA ATCC BAA-1766,Susceptible
same,Synergy with Polymyxin B (Polypeptides),drug-resistant bacteria; A. baumannii ATCC 15151,Synergy
same,Synergy with Polymyxin E (Polypeptides),drug-resistant bacteria; A. baumannii ATCC 15151,Synergy
same,Synergy with Polymyxin B (Polypeptides),drug-resistant bacteria; CRE ATCC 1705,Synergy
same,Synergy with Polymyxin E (Polypeptides),drug-resistant bacteria; CRE ATCC 1705,Synergy
same,Synergy with Polymyxin B (Polypeptides),drug-resistant bacteria; CRE ATCC 2340,Synergy
same,Synergy with Polymyxin E (Polypeptides),drug-resistant bacteria; CRE ATCC 2340,Synergy
same,Synergy with Polymyxin B (Polypeptides),drug-resistant bacteria; CRE ATCC 2341,Synergy
same,Synergy with Polymyxin E (Polypeptides),drug-resistant bacteria; CRE ATCC 2341,Synergy
same,Synergy with Polymyxin B (Polypeptides),drug-resistant bacteria; CRE ATCC 2342,Synergy
same,Synergy with Polymyxin E (Polypeptides),drug-resistant bacteria; CRE ATCC 2342,Synergy
same,Synergy with Norfioxacin (Fluoroquinolones),drug-resistant bacteria; MRSA ATCC BAA-44,Synergy
same,Synergy with Oxacillin (β-lactama),"drug-resistant bacteria; MRSA ATCC BAA-44, *indicated ampicillin, dicloxicillin and Penicillin G",Synergy*
same,Synergy with Polymyxin B (Polypeptides),drug-resistant bacteria; P. aeruginosa ATCC 27853,Synergy
same,Synergy with Polymyxin E (Polypeptides),drug-resistant bacteria; P. aeruginosa ATCC 27853,Synergy
same,Synergy with Norfioxacin (Fluoroquinolones),drug-resistant bacteria; VRE ATCC 51299,Synergy
same,Synergy with Tetracycline (Tetracyclines),drug-resistant bacteria; VRE ATCC 51299,Synergy
same,Synergy with Vancomycin (Glycopeptides),drug-resistant bacteria; VRE ATCC 51299,Synergy
